Data on two compounds can be found in patent US20240174649A1, “CULLIN-RING E3 UBIQUITIN LIGASE 4 INHIBITOR COMPOUNDS AND METHODS OF THEIR USE” (ICAHN SCHOOL OF MEDICINE AT MOUNT SINAI, priority 2021, published 2024).

The structures appear in SMILES notation.

One assay addresses E3 CRL4^CRBN (Homo sapiens (Human), UniProt Q13619). The experiment in a line: Lenalidomide-dependent ubiquitination of CK1α by CRL4^CRBN. The settings on record: at 30 μM. The assay is classed as biochemical. How it is done:
To prepare Flag-CK1α as a substrate for ubiquitination experiments described in FIGS. 2A-E, the expression vector (purchased from Addgene) was introduced to HEK-293T cells by transfection using Lipofectamine RNAIMAX (ThermoFisher) according to manufacturer's protocols. Cell extracts were prepared and the concentration of Flag-CK1α was determined using immunoblot analysis with purified GST-CK1α (Sigma) as a standard. Typically, 50-100 μl of extracts was used to attach to ˜15 μl of M2 beads (Sigma) at 4° C. for 2 hours. Unbound materials were removed by washing (first three times with a washing buffer containing 50 mM Tris-HCl, pH8.0, 1% Triton X-100, 0.5M NaCl, and then twice with buffer A plus 50 mM NaCl) and the resulting beads were used in the ubiquitination assay (15 μl). The concentration of Flag-CK1α was determined to be ˜100 nM.
Immobilized, Flag-CK1α-containing beads were initially incubated with a reaction mixture (10 μl) containing 50 mM Tris-HCl (pH7.4), 0.5 mM DTT, 0.1 mg/ml of BSA, 5 mM MgCl2, 100 nM CRL4^CRBN, 1 μM Lenalidomide (Selleckchem), 1 μM Fluorescein-Ub, 100 nM E1, and 1 μM UbcH5c. ATP (20 mM) was added last to initiate the reaction. The reaction was incubated on a thermomixer (1,300 rpm; Eppendorf) at 37° C. for 5 min. The resulting beads were then added with a second reaction mixture (5 μl) containing 50 mM Tris-HCl (pH7.4), 0.5 mM DTT, 0.1 mg/ml of BSA, 5 mM MgCl2, 4 μM I-Ub-Q31C/K48R, and 1 μM Cdc34b, in the presence or absence of E3 inhibitors as specified. The reaction was incubated on a thermomixer at 37° C. for times as indicated. The concentrations of enzymes, Ubs, and compounds stated above were adjusted based on a final volume of 15 μl. The beads were then washed using conditions as described above. Materials eluted from the beads were separated by 4-20% SDS-PAGE followed by detection with fluorescence scanning (Typhoon 9500) or immunoblot using anti-CK1α antibody (Abcam). […]

The target of a further assay is ROC1-CUL1 (Homo sapiens (Human), UniProt Q13616). The experiment in a line: Gel-based di-Ub synthesis. The assay is classed as biochemical. How it is done:
For the experiment shown in FIG. 7 and FIGS. 8A-B, the di-Ub synthesis reaction was carried out by preassembling the donor Ub mix. The donor Ub mixture (5 μl) contained 50 mM Tris HCl (pH 7.4), 5 mM MgCl2, 2 mM ATP, 0.5 mM DTT, 0.1 mg/mL BSA, 1 μM Ub-NC-I555, 0.1 μM E1, and 2 μM Cdc34b. The reaction was incubated for 5 min at 37° C. Compounds, in the amounts indicated, were added followed by the addition of ROC1-CUL1 (or related E3 subcomplex) in amounts as indicated and 10 μM PK-Ub (1-74) (as a receptor). The final volume was adjusted to 10 μl. The reaction was incubated for 10 min at 37° C.
For the experiments shown in FIG. 8C and FIG. 9, the reaction was assembled in a 10-μl mixture containing 50 mM Tris HCl (pH 7.4), 5 mM MgCl2, 0.5 mM DTT, 0.1 mg/mL BSA, 0.05 μM Ub-NC-I555, 2,5 μM PK-Ub (1-74), 0.1 μM E1, 1 μM Cdc34b, and 80 nM ROC1-CUL1 with or without compound. The reaction was initiated by the addition of 2 mM ATP. The products were separated by 4-20% SDS/PAGE and were visualized and quantified on a Typhoon FLA 9500 laser scanner (GE).

Assay [1] concerns the target T1, ROC1-CUL1 CTD (Homo sapiens (Human), UniProt Q13616). The experiment in a line: Ligand binding by MST. The settings on record: Table 5, MST; read-out: E3 binding Kd. On the procedure: E3 ligase complex (˜2 nmol) was labeled with fluorescent dye using Monolith NT Protein Labeling Kit Red-NHS (Nanotemper) in the presence of 20 mM MES pH 6.0 and 150 mM NaCl. Excess dye was removed using the included gravity flow column and eluted in storage buffer containing 20 mM Tris-HCl, pH 7.4, 150 mM NaCl, and 10% glycerol. The fluorescent E3 complex (˜0.01-0.06 μM) was mixed with increasing amount of compound in a buffer (20 μl) that contains phosphate-buffered saline, 0.1% TWEEN-20 and 2% prionex. Following incubation at room temperature for 30 min, the reaction mixture loaded into premium coated capillaries and analyzed in the Monolith NT.115 machine (Nanotemper). Thermophoresis was recorded for each sample and binding curve was generated and Kd was calculated using the included software. For reactions where significant ligand specific fluorescence quenching occurred (verified by manufacturer's SDS Denaturation-test protocol), the initial fluorescence quenching data was used directly to calculate the binding curve and Kd.

Assay [2] has as its target T1, ROC1-CUL1 CTD. The experiment in a line: FRET K48 di-Ub synthesis assay. The format is biochemical. The note with it: HTS screening conditions, read-out: inhibition of the reaction.

T1 sequence (Q13616 411-776): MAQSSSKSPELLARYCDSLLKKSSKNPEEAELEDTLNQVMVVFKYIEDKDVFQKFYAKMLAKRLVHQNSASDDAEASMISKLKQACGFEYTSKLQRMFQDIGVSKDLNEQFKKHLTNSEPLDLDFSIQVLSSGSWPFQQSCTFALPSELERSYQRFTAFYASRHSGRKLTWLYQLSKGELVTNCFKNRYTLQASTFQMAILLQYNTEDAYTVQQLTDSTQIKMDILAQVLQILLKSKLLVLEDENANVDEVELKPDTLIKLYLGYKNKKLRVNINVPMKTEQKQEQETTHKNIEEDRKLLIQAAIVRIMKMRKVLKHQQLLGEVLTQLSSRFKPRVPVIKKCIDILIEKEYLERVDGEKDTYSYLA
T1 sequence (P62877 whole entry partner): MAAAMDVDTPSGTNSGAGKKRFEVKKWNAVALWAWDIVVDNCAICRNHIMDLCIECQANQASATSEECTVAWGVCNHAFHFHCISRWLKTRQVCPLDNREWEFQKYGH
Sequence of ROC1-CUL1 (Q13616 whole entry): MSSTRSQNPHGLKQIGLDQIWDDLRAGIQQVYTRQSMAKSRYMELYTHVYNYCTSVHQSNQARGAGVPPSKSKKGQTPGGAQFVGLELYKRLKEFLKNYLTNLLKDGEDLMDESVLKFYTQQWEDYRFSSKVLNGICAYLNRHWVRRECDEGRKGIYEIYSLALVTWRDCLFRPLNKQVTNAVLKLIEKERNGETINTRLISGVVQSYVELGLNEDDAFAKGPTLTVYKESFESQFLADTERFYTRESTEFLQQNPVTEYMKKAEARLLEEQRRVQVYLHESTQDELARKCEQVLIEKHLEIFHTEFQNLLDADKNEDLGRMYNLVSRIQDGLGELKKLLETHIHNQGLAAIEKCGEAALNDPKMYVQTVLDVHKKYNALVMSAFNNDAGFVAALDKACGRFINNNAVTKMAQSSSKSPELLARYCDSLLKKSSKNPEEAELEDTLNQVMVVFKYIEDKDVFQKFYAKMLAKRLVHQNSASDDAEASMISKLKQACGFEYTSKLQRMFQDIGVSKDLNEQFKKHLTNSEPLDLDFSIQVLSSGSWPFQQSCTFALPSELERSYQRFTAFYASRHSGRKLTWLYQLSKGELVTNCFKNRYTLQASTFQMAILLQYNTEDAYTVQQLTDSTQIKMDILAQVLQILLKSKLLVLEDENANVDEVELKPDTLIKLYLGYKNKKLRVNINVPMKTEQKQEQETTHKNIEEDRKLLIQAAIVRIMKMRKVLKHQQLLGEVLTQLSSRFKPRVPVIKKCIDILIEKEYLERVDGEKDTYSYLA
Sequence of ROC1-CUL1 (P62877 whole entry partner): as the sequence (P62877 whole entry partner) above
Sequence of E3 CRL4^CRBN (Q13619 whole entry): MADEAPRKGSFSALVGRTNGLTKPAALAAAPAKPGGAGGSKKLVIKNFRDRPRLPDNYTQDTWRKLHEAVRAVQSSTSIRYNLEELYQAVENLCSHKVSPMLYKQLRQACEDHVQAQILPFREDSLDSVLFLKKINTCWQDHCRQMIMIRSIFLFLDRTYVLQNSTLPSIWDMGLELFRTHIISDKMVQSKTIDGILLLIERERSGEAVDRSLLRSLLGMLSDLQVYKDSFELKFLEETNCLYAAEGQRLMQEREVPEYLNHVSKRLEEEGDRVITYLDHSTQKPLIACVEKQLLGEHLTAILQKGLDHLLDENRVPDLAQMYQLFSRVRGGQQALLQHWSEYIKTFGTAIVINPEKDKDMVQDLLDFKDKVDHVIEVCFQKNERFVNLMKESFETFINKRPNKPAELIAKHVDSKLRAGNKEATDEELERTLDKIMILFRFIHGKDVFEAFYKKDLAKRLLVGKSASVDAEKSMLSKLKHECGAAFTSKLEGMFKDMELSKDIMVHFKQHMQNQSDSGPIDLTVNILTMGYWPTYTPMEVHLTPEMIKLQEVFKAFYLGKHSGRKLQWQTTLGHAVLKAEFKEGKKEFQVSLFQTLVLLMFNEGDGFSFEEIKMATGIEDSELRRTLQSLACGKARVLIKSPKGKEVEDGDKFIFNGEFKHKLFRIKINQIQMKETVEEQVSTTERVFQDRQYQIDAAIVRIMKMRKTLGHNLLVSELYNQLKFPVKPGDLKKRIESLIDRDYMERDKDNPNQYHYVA
Sequence of E3 CRL4^CRBN (P62877 whole entry partner): as the sequence (P62877 whole entry partner) above
Sequence of E3 CRL4^CRBN (Q16531 whole entry partner): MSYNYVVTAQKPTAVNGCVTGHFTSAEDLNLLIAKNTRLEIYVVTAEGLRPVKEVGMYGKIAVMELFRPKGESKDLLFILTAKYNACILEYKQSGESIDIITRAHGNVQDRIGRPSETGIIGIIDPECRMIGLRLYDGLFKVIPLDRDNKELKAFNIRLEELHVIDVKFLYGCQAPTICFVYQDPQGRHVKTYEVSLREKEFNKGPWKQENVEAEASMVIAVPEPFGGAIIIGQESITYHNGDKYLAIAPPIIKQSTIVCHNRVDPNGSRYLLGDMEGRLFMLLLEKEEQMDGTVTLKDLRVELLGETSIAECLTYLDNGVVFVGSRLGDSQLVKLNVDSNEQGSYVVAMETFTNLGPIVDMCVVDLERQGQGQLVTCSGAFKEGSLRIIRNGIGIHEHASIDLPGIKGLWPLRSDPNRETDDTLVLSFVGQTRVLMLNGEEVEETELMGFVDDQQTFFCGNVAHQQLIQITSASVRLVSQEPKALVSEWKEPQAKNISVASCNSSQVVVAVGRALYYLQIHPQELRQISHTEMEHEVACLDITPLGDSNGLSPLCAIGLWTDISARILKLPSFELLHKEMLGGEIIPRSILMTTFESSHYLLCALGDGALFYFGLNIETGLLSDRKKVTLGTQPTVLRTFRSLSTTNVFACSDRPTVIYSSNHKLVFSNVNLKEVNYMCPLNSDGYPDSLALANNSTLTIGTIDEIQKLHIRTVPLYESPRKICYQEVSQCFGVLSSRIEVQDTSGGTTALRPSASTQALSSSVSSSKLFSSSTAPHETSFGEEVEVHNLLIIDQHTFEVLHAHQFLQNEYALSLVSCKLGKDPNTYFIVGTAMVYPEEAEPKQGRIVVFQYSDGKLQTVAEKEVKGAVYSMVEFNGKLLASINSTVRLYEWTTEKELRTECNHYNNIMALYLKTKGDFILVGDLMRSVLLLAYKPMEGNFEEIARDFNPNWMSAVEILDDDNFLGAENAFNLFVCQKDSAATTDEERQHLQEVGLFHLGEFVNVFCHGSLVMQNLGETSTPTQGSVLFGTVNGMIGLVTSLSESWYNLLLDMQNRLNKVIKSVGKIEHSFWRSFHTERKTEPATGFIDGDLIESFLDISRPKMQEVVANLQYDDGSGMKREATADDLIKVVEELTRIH
Sequence of E3 CRL4^CRBN (Q96SW2 whole entry partner): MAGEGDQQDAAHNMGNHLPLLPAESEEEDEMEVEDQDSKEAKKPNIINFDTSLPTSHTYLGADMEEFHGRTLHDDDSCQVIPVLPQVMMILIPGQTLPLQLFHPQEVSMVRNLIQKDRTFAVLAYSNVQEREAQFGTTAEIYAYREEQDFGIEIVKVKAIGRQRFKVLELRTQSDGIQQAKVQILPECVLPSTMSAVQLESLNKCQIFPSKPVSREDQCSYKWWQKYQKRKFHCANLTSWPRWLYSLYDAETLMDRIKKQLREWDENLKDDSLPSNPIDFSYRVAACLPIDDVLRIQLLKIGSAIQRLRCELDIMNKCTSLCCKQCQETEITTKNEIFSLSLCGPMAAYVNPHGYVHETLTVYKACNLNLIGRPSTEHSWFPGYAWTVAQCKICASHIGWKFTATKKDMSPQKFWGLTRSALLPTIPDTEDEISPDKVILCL

For the compound `O=c1c(Oc2ccccc2)c(C(F)(F)F)oc2c(O)c(O)ccc12` [#33, 7,8-dihydroxy-3-phenoxy-2-(trifluoromethyl)-4H-chromen-4-one], on E3 CRL4^CRBN, the “inhibition of ubiquitination of CK1α” value was “Significant inhibitory effects”. Further, on ROC1-CUL1, the “discharge of Cdc34-Ub and production of Ub2 by ROC1-CUL1” value is “showed inhibition”. For the same compound, the Kd on ROC1-CUL1 CTD [1] came to 1840 nM.

As for `Cc1ccc(C(=O)Nc2ccc(S(=O)(=O)O)c3cc(S(=O)(=O)O)cc(S(=O)(=O)O)c23)cc1NC(=O)c1cccc(NC(=O)Nc2cccc(C(=O)Nc3cc(C(=O)Nc4ccc(S(=O)(=O)O)c5cc(S(=O)(=O)O)cc(S(=O)(=O)O)c45)ccc3C)c2)c1` [Suramin, suramin], at ROC1-CUL1 CTD [2] (0.8 μM), the inhibition at 0.8 µM worked out at 50%. For the same compound, at ROC1-CUL1 CTD [2] (5 μM), the inhibition at 5 µM turned out to be 100%.
